Test results: the CheMixHub viscosity set
“And” between values parts separate entries of the source, which are not always exact repeats. Identical values can stand only once.

Assay: xn = mol fraction of the nth substance listed

CN[C@@H]1[C@H](O[C@H]2[C@H](O[C@H]3[C@H](O)[C@@H](O)[C@H](NC(=N)N)[C@@H](O)[C@@H]3NC(=N)N)O[C@@H](C)[C@]2(O)C=O)O[C@@H](CO)[C@H](O)[C@H]1O.CN[C@@H]1[C@H](O[C@H]2[C@H](O[C@H]3[C@H](O)[C@@H](O)[C@H](NC(=N)N)[C@@H](O)[C@@H]3NC(=N)N)O[C@@H](C)[C@]2(O)C=O)O[C@@H](CO)[C@H](O)[C@H]1O.O=S(=O)(O)O.O=S(=O)(O)O.O=S(=O)(O)O + O
viscosity
Conditions	293.15 K	298.15 K	303.15 K
101 kPa, x1 = 7.6e-05	–	0.9256 mPa·s	0.8296 mPa·s
101 kPa, x1 = 0.0001	–	0.9434 mPa·s	0.8493 mPa·s
101 kPa, x1 = 0.00015	–	0.9504 mPa·s	0.8528 mPa·s
101 kPa, x1 = 0.000216	–	0.9744 mPa·s	0.8752 mPa·s
101 kPa, x1 = 0.000286	–	0.9974 mPa·s	0.8971 mPa·s
101 kPa, x1 = 0.0003	–	0.9849 mPa·s	0.8904 mPa·s
101 kPa, x1 = 0.000358	–	1.02 mPa·s	0.919 mPa·s
101.3 kPa, x1 = 0.00018	1.053 mPa·s	0.939 mPa·s	0.844 mPa·s
101.3 kPa, x1 = 0.0003604	1.102 mPa·s	0.985 mPa·s	0.887 mPa·s
101.3 kPa, x1 = 0.00054	1.156 mPa·s	1.037 mPa·s	0.936 mPa·s
101.3 kPa, x1 = 0.0007203	1.207 mPa·s	1.089 mPa·s	0.981 mPa·s
101.3 kPa, x1 = 0.0009005	1.266 mPa·s	1.147 mPa·s	1.035 mPa·s
101.3 kPa, x1 = 0.00108	1.328 mPa·s	1.192 mPa·s	1.079 mPa·s
101.3 kPa, x1 = 0.00126	1.393 mPa·s	1.249 mPa·s	1.126 mPa·s
101.3 kPa, x1 = 0.001439	1.446 mPa·s	1.296 mPa·s	1.171 mPa·s
101.33 kPa, x1 = 5e-07	–	–	0.8016 mPa·s
101.33 kPa, x1 = 7e-07	–	0.8964 mPa·s	0.8024 mPa·s
101.33 kPa, x1 = 9e-07	–	0.8973 mPa·s	0.8032 mPa·s
101.33 kPa, x1 = 1e-06	–	0.8981 mPa·s and 0.899 mPa·s and 0.8998 mPa·s	–
101.33 kPa, x1 = 1.8e-06	–	0.9034 mPa·s	–
101.33 kPa, x1 = 2e-06	–	0.9025 mPa·s and 0.9043 mPa·s	–
101.33 kPa, x1 = 2.2e-06	–	0.9051 mPa·s	–
